Reference: article PMC7031403, “A molecular switch regulating transcriptional repression and activation of PPARγ” (Nature Communications, 2020)

What was measured:
Assay in all cases: Fluorescence polarization peptide interaction assay, NCoR ID2 peptide affinity, apo- or T0070907-bound wild type or mutant PPARγ LBD
Assay type in all cases: binding
[1] = molecular target: T1, PPARγ LBD (wild type or mutant) (Homo sapiens, UniProt P37231, D503A); details: apo (DMSO) D475A PPARγ LBD; one site-total binding fit; read-out: NCoR ID2 peptide affinity, mean of fit (log scale) (converted)
T1 construct: made in house; host or cells: Escherichia coli BL21(DE3)
Description: (§1) Plates were incubated at 25 °C for 1 h, and fluorescence polarization was measured on a BioTek Synergy Neo multimode plate reader at […] wavelengths. Data were plotted using GraphPad Prism as fluorescence polarization signal in millipolarization units vs. protein concentration and fit to a one site—total binding equation.

[2] = molecular target: T2, PPARγ LBD (wild type or mutant) (Homo sapiens, UniProt P37231, D503R); details: apo (DMSO) D475R PPARγ LBD; one site-total binding fit; read-out: NCoR ID2 peptide affinity, mean of fit (log scale) (converted)
T2 construct: made in house; host or cells: Escherichia coli BL21(DE3)
Description: as §1

[3] = molecular target: T3, PPARγ LBD (wild type or mutant) (Homo sapiens, UniProt P37231, E499A); details: apo (DMSO) E471A PPARγ LBD; one site-total binding fit; read-out: NCoR ID2 peptide affinity, mean of fit (log scale) (converted)
T3 construct: made in house; host or cells: Escherichia coli BL21(DE3)
Description: as §1

[4] = molecular target: T4, PPARγ LBD (wild type or mutant) (Homo sapiens, UniProt P37231, E499R); details: apo (DMSO) E471R PPARγ LBD; one site-total binding fit; read-out: NCoR ID2 peptide affinity, mean of fit (log scale) (converted)
T4 construct: made in house; host or cells: Escherichia coli BL21(DE3)
Description: as §1

[5] = molecular target: T5, PPARγ LBD (wild type or mutant) (Homo sapiens, UniProt P37231, H351A); details: apo (DMSO) H323A PPARγ LBD; one site-total binding fit; read-out: NCoR ID2 peptide affinity, mean of fit (log scale) (converted)
T5 construct: made in house; host or cells: Escherichia coli BL21(DE3)
Description: as §1

[6] = molecular target: T6, PPARγ LBD (wild type or mutant) (Homo sapiens, UniProt P37231, H477A); details: apo (DMSO) H449A PPARγ LBD; one site-total binding fit; read-out: NCoR ID2 peptide affinity, mean of fit (log scale) (converted)
T6 construct: made in house; host or cells: Escherichia coli BL21(DE3)
Description: as §1

[7] = molecular target: T7, PPARγ LBD (wild type or mutant) (Homo sapiens, UniProt P37231, K329A); details: apo (DMSO) K301A PPARγ LBD; one site-total binding fit; read-out: NCoR ID2 peptide affinity, mean of fit (log scale) (converted)
T7 construct: made in house; host or cells: Escherichia coli BL21(DE3)
Description: as §1

[8] = molecular target: T8, PPARγ LBD (wild type or mutant) (Homo sapiens, UniProt P37231, K347A); details: apo (DMSO) K319A PPARγ LBD; one site-total binding fit; read-out: NCoR ID2 peptide affinity, mean of fit (log scale) (converted)
T8 construct: made in house; host or cells: Escherichia coli BL21(DE3)
Description: as §1

[9] = molecular target: T9, PPARγ LBD (wild type or mutant) (Homo sapiens, UniProt P37231, K395A); details: apo (DMSO) K367A PPARγ LBD; one site-total binding fit; read-out: NCoR ID2 peptide affinity, mean of fit (log scale) (converted)
T9 construct: made in house; host or cells: Escherichia coli BL21(DE3)
Description: as §1

[10] = molecular target: T10, PPARγ LBD (wild type or mutant) (Homo sapiens, UniProt P37231, M392A); details: apo (DMSO) M364A PPARγ LBD; one site-total binding fit; read-out: NCoR ID2 peptide affinity, mean of fit (log scale) (converted)
T10 construct: made in house; host or cells: Escherichia coli BL21(DE3)
Description: as §1

[11] = molecular target: T11, PPARγ LBD (wild type or mutant) (Homo sapiens, UniProt P37231, N340A); details: apo (DMSO) N312A PPARγ LBD; one site-total binding fit; read-out: NCoR ID2 peptide affinity, mean of fit (log scale) (converted)
T11 construct: made in house; host or cells: Escherichia coli BL21(DE3)
Description: as §1

[12] = molecular target: T12, PPARγ LBD (wild type or mutant) (Homo sapiens, UniProt P37231, Q314A); details: apo (DMSO) Q286A PPARγ LBD; one site-total binding fit; read-out: NCoR ID2 peptide affinity, mean of fit (log scale) (converted)
T12 construct: made in house; host or cells: Escherichia coli BL21(DE3)
Description: as §1

[13] = molecular target: T13, PPARγ LBD (wild type or mutant) (Homo sapiens, UniProt P37231, Q322A); details: apo (DMSO) Q294A PPARγ LBD; one site-total binding fit; read-out: NCoR ID2 peptide affinity, mean of fit (log scale) (converted)
T13 construct: made in house; host or cells: Escherichia coli BL21(DE3)
Description: as §1

[14] = molecular target: T14, PPARγ LBD (wild type or mutant) (Homo sapiens, UniProt P37231, Q342A); details: apo (DMSO) Q314A PPARγ LBD; one site-total binding fit; read-out: NCoR ID2 peptide affinity, mean of fit (log scale) (converted)
T14 construct: made in house; host or cells: Escherichia coli BL21(DE3)
Description: as §1

[15] = molecular target: T15, PPARγ LBD (wild type or mutant) (Homo sapiens, UniProt P37231, R308A); details: apo (DMSO) R280A PPARγ LBD; one site-total binding fit; read-out: NCoR ID2 peptide affinity, mean of fit (log scale) (converted)
T15 construct: made in house; host or cells: Escherichia coli BL21(DE3)
Description: as §1

[16] = molecular target: T16, PPARγ LBD (wild type or mutant) (Homo sapiens, UniProt P37231, R316A); details: apo (DMSO) R288A PPARγ LBD; one site-total binding fit; read-out: NCoR ID2 peptide affinity, mean of fit (log scale) (converted)
T16 construct: made in house; host or cells: Escherichia coli BL21(DE3)
Description: as §1

[17] = molecular target: T17, PPARγ LBD (wild type or mutant) (Homo sapiens, UniProt P37231, Y355A); details: apo (DMSO) Y327A PPARγ LBD; one site-total binding fit; read-out: NCoR ID2 peptide affinity, mean of fit (log scale) (converted)
T17 construct: made in house; host or cells: Escherichia coli BL21(DE3)
Description: as §1

[18] = molecular target: T18, PPARγ LBD (wild type or mutant) (Homo sapiens, UniProt P37231, Y505A); details: apo (DMSO) Y477A PPARγ LBD; one site-total binding fit; read-out: NCoR ID2 peptide affinity, mean of fit (log scale) (converted)
T18 construct: made in house; host or cells: Escherichia coli BL21(DE3)
Description: as §1

T7 sequence (P37231 231-505 K329A): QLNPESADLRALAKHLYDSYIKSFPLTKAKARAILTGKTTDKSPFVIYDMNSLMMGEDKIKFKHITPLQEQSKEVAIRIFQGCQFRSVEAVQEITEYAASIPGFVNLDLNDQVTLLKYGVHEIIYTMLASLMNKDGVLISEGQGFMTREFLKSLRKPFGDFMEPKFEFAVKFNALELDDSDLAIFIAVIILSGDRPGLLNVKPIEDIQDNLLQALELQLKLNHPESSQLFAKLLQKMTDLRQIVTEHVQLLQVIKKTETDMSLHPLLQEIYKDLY
T7 sequence (O75376 2256-2278 partner): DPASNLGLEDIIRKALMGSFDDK
T16 sequence (P37231 231-505 R316A): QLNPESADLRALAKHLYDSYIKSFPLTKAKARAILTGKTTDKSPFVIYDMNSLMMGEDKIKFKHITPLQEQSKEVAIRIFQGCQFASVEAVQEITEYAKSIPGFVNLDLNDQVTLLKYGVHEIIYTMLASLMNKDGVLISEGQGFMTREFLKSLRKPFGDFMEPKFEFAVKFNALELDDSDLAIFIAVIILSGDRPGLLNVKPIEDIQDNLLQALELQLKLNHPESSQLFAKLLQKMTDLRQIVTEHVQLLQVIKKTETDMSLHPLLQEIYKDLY
T17 sequence (P37231 231-505 Y355A): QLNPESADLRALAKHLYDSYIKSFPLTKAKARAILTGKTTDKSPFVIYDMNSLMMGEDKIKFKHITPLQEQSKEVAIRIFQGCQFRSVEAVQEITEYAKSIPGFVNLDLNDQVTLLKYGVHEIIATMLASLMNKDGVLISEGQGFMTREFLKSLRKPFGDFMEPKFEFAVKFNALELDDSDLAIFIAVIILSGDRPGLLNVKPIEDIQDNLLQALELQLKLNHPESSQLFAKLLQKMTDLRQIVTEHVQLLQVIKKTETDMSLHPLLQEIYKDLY
T18 sequence (P37231 231-505 Y505A): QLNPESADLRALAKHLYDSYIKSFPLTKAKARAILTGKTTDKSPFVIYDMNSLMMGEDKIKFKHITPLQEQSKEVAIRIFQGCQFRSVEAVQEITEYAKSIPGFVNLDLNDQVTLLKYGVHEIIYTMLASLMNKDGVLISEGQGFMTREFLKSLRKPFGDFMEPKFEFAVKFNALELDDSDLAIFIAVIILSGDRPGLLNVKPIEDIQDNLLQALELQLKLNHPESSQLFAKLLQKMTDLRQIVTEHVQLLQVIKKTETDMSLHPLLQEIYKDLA
T1 sequence (P37231 231-505 D503A): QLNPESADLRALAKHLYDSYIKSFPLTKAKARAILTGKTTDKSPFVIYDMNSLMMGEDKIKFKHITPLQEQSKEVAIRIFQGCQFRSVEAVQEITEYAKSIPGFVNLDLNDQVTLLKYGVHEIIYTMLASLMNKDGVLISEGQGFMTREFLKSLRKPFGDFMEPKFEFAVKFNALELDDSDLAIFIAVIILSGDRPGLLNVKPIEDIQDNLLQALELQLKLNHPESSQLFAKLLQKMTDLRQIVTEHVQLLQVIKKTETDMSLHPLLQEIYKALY
T11 sequence (P37231 231-505 N340A): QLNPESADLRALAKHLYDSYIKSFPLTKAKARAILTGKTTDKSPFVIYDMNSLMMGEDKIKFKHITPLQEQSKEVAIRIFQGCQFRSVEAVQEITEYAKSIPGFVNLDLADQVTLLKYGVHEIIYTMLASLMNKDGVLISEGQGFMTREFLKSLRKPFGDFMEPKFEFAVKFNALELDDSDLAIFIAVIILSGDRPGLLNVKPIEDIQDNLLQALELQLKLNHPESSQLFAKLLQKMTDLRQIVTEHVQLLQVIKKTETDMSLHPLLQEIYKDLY
T6 sequence (P37231 231-505 H477A): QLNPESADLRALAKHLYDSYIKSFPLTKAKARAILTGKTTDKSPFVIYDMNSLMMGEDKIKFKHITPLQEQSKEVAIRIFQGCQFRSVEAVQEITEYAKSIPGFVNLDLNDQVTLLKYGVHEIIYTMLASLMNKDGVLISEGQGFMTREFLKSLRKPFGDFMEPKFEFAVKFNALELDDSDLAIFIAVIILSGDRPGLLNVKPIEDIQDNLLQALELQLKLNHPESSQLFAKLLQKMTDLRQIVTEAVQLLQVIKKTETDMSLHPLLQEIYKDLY
T4 sequence (P37231 231-505 E499R): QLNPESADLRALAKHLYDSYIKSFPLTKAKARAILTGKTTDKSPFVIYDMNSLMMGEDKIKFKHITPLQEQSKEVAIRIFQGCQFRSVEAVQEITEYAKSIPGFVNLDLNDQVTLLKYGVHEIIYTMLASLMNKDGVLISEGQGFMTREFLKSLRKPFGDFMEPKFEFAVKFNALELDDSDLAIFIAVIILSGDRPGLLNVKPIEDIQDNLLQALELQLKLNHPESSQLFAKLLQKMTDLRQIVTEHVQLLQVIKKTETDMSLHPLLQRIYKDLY
T10 sequence (P37231 231-505 M392A): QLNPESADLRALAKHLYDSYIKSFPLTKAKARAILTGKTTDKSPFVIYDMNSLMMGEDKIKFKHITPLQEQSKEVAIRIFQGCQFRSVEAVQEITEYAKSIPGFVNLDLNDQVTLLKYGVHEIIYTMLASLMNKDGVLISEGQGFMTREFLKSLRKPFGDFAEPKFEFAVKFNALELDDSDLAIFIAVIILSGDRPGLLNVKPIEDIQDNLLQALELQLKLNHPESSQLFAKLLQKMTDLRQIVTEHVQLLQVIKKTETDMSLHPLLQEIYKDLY
T12 sequence (P37231 231-505 Q314A): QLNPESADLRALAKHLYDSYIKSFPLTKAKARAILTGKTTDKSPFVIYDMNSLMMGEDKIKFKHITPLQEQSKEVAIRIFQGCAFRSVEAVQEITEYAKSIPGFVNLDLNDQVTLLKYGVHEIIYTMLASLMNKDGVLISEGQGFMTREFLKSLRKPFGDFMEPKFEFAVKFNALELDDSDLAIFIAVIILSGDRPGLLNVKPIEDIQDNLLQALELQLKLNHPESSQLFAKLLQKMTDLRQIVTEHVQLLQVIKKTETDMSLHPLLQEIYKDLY
T13 sequence (P37231 231-505 Q322A): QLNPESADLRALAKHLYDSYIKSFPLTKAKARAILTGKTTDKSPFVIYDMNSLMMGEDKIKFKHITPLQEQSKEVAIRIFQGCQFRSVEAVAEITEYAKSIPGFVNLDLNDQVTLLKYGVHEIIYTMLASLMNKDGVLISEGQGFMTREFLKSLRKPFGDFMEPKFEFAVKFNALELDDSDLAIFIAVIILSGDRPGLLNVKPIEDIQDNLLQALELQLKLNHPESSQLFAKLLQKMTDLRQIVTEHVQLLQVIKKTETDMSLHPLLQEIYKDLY
T3 sequence (P37231 231-505 E499A): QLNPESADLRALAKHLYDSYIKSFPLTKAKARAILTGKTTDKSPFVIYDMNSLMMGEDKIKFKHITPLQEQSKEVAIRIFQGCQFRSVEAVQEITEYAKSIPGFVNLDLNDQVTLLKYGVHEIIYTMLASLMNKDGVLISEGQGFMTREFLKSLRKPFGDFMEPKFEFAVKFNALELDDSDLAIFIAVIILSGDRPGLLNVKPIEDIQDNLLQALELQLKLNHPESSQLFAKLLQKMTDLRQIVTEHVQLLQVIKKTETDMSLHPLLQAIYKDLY
T8 sequence (P37231 231-505 K347A): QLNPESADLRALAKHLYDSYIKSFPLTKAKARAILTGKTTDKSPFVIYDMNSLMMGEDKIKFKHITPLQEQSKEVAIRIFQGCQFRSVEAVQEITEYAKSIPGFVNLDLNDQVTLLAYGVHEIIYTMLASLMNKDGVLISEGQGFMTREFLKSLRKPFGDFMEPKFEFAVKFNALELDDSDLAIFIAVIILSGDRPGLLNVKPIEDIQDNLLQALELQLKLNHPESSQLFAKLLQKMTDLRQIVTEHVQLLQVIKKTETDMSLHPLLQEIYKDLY
T9 sequence (P37231 231-505 K395A): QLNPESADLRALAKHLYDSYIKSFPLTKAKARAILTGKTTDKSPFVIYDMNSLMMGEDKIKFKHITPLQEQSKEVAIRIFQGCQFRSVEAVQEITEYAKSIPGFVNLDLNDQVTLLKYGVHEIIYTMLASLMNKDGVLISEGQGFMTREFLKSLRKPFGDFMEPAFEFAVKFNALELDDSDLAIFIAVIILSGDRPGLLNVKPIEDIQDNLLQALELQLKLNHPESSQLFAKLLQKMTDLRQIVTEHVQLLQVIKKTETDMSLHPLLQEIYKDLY
T15 sequence (P37231 231-505 R308A): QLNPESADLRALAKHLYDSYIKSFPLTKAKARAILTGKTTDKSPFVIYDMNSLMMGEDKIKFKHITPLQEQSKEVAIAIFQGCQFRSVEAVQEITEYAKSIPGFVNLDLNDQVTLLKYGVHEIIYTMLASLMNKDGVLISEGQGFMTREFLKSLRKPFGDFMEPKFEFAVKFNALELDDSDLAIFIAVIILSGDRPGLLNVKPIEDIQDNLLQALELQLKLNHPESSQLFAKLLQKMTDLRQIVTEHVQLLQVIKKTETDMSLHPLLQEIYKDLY

## CC[C@H](C)[C@H](NC(=O)[C@H](CC(=O)O)NC(=O)[C@H](CCC(=O)O)NC(=O)[C@H](CC(C)C)NC(=O)CNC(=O)[C@H](CC(C)C)NC(=O)[C@H](CC(N)=O)NC(=O)[C@H](CO)NC(=O)[C@H](C)NC(=O)[C@@H]1CCCN1C(=O)[C@H](CC(=O)O)NC(=O)CCCCCNC(=S)Nc1ccc2c(c1)C(=O)OC21c2ccc(O)cc2Oc2cc(O)ccc21)C(=O)N[C@H](C(=O)N[C@@H](CCCNC(=N)N)C(=O)N[C@@H](CCCCN)C(=O)N[C@@H](C)C(=O)N[C@@H](CC(C)C)C(=O)N[C@@H](CCSC)C(=O)NCC(=O)N[C@@H](CO)C(=O)N[C@@H](Cc1ccccc1)C(=O)N[C@@H](CC(=O)O)C(=O)N[C@@H](CC(=O)O)C(=O)N[C@@H](CCCCN)C(N)=O)[C@@H](C)CC [NCoR-D2]
[1]
  Kd: 621 nM
[2]
  Kd: 522 nM
[3]
  Kd: 525 nM
[4]
  Kd: 348 nM
[5]
  Kd: 621 nM
[6]
  Kd: 1490 nM
[7]
  Kd: 4930 nM
[8]
  Kd: 2580 nM
[9]
  Kd: 1080 nM
[10]
  Kd: 38700 nM
[11]
  Kd: 1410 nM
[12]
  Kd: 807 nM
[13]
  Kd: 2420 nM
[14]
  Kd: 867 nM
[15]
  Kd: 766 nM
[16]
  Kd: 1200 nM
[17]
  Kd: 590 nM
[18]
  Kd: 822 nM
